# Source: PMC10950972, “Relative bioavailability of fedratinib through various alternative oral administration methods in healthy adults” (Cancer Chemotherapy and Pharmacology, 2023)
# Where two headings read alike, the source gives them in different places. Marks after values point to notes of the source that are not given here.
# Legend:
# [1] = Phase 1 relative bioavailability study part 2: plasma pharmacokinetics of fedratinib (3-period crossover); assay type: in vivo, human; conditions: for Cmax / Tmax / AUC(0-t) / AUC(0-inf) / half-life: human, plasma; for half-life: read-out: t½, mean (SD) (converted)
# Experimental: Study part 2 was a 3-period, 6-sequence, open-label, crossover design (Fig. 1B). Treatment 2A (reference) consisted of fedratinib 400 mg (4 × 100-mg capsules) administered orally alongside a nutritional supplement. Treatment 2B (test) consisted of fedratinib 400 mg dispersed in the nutritional supplement (180 mL, Ensure Plus), administered via nasogastric tube, and flushed with 60 mL of sterile water. Treatment 2C (test) consisted of fedratinib 400 mg as a divided dose (2 × 100-mg capsules BID) administered alongside the nutritional supplement. Participants were randomized to receive treatment in one of the following sequences: 2A–2B–2C, 2A–2C–2B, 2B–2A–2C, 2B–2C–2A, 2C–2A–2B, or 2C–2B–2A. […] In the case of an evening (second) dose in the divided dosing plan of treatment 2C, participants were directed to pre-fast at least 2 h before fedratinib dose, and 4 h after fedratinib dose, with water restricted from approximately 2 h before and 1 h after dosing, excluding water given with the treatment.
# Approximately 1 h before each fedratinib administration, ondansetron oral tablet (film coated) 8 mg was given orally to reduce the potential for fedratinib-related nausea and vomiting. There was a washout period of at least 12 days between each dose of fedratinib. The duration from screening through the follow-up phone call was approximately 10 weeks. Participants resided at the clinical site from days -1 to 23 (study part 1), or days -1 to 35 (study part 2). If a participant discontinued from the study for any reason, an early termination visit was performed, with only the safety assessments scheduled for the day of discharge taking place. Additionally, each participant who discontinued also received a follow-up phone call 4 (± 2) days after completion of the early termination visit.
# For study part 1, and part 2 treatments 2A and 2B, blood samples were collected pre-dose (0 h) and at 0.5, 1, 1.5, 2, 3, 4, 6, 8, 12, 24, 48, 72, 120, 168, 192, and 240 h post-dose. For treatment 2C, blood samples were collected pre-dose (0 h) and at 0.5, 1, 1.5, 2, 3, 4, 6, 8, 12, 12.5, 13, 13.5, 14, 15, 16, 18, 24, 48, 72, 120, 168, 192, and 240 h post-dose of the first dose. The plasma concentration of fedratinib was measured using a validated liquid chromatography-tandem mass spectrometry assay with a lower limit of quantification of 1.00 ng/mL [12, 20].
# Plasma PK parameters were calculated using noncompartmental methods by a validated PK analysis program (Phoenix® WinNonlin®, v8.3.4 [Certara USA, Inc., Princeton, NJ, USA]) using actual times. The PK parameters determined for fedratinib Cmax, Tmax, AUC from time 0 to the time of the last quantifiable concentration (AUC0–t), AUC from time 0 to infinity (AUC0–∞), and t½. Additionally for treatment 2C, Cmax and Tmax were estimated after both the first dose (Cmax and Tmax) and the second dose (Cmax2 and Tmax2). AUC0–t and AUC0–∞ were estimated from time 0 (the first dose) through 240 h after the first dose. AUC parameters were calculated using the linear-log trapezoidal method.
# The sample size for this study was based on consideration of the precision in the comparison of PK parameters, represented by the 90% confidence interval (CI) of the geometric mean ratios of Cmax and AUC of fedratinib. […] Only participants with valid PK data were included in the summary statistics and statistical analysis.
# To compare the PK parameters and estimated relative bioavailability of fedratinib following different administration methods in each study part (treatment 1B to 1A, and treatment 2B and 2C to 2A), a linear mixed-effect model with treatment, period, and sequence as fixed effects and participant nested within sequence as a random effect was fitted to the natural log-transformed PK parameters (Cmax, AUC0–t, and AUC0–∞) for use in estimation of effects and construction of CIs. […]
# [2] = system: healthy adults; assay: Safety assessment (adverse events) in the phase 1 study; assay type: in vivo, human
# Experimental: Participants were monitored for adverse events (AEs) during the study, including assessments for clinical symptoms, biochemical, hematologic, and urinalysis laboratory results, physical examinations, 12-lead electrocardiograms, and vital signs. AEs were assessed for seriousness, severity, and relationship to the drug. AEs were assigned to the last study treatment administered at the time of onset, starting during or after the administration of the first dose. AEs that occurred after discharge were assigned to the last study treatment received for up to 30 days after the last dose of fedratinib.
# [3] = In vitro drug recovery from the nasogastric tube and stability in suspension (data on file); assay type: physicochemical; conditions: in vitro studies
# Text: Reduced exposure was also unlikely to be due to misplacement of the nasogastric tube, as placement was confirmed through X-ray imaging (data on file). The differences in exposure to fedratinib between treatments 2B, 2C, and 2A were likely to be due to interparticipant variability. Furthermore, the 90% CI for the difference in exposure to fedratinib between treatments 2B and 2A fell within the 0.8–1.25 range conventionally defined as having no clinical effect.
# [4] = system: patients with myelofibrosis resistant/intolerant to prior ruxolitinib; parameters: method as in doi:10.1182/blood-2022-156669; conditions: fedratinib 400 mg/day, FREEDOM trial, 38 patients; cited from earlier work
# [5] = parameters: method as in earlier work; conditions: 400 mg dosing in patients with myelofibrosis; range 2–4 h; cited from earlier work
# [6] = parameters: method as in PMID 27136912; conditions: 100 mg and 500 mg doses, healthy volunteers; cited from earlier work
# [7] = Treatment 2B vs 2A (nasogastric tube vs intact capsules), linear mixed-effect model
# [8] = Treatment 2C: 400 mg oral divided dose (2 × 100-mg capsules BID) with nutritional supplement, after second dose, n = 30
smiles,measurement,setting,value
Cc1cnc(Nc2ccc(OCCN3CCCC3)cc2)nc1Nc1cccc(S(=O)(=O)NC(C)(C)C)c1 [fedratinib],AUC0–∞ geometric mean ratio (90% CI),[1]; [7],0.863 (0.816–0.912)
same,Cmax geometric mean ratio (90% CI),[1]; [7],0.898 (0.837–0.963)
same,AUC0–∞ geometric mean ratio (90% CI),"[1]; Treatment 2C vs 2A (divided dose vs intact capsules QD), linear mixed-effect model",0.850 (0.804–0.899)
same,"Cmax2, geometric mean (Geo. %CV)",[1]; [8],487.3^b (44.0) ng/mL
same,"Tmax2, median (range)",[1]; [8],3.9^b (1.0–6.0) h
same,Cmax,"[1]; oral, 400 mg, Treatment 2C: 400 mg divided dose (2 × 100-mg capsules BID), after first dose, n = 30, read-out: Cmax, geometric mean (statistical analysis)",641 ng/mL
same,Tmax,"[1]; oral, 400 mg, Treatment 2C: 400 mg divided dose (2 × 100-mg capsules BID), after first dose, n = 30, read-out: Tmax, median (statistical analysis)",2.26 h
same,AUC(0-t),"[1]; oral, 400 mg, Treatment 2C: 400 mg divided dose (2 × 100-mg capsules BID), n = 30, read-out: AUC0–t, geometric mean (statistical analysis)",18900 ng·h/mL
same,AUC(0-inf),"[1]; oral, 400 mg, Treatment 2C: 400 mg divided dose (2 × 100-mg capsules BID), n = 30, read-out: AUC0–∞, geometric mean (statistical analysis)",21300 ng·h/mL
same,AUC(0-t),"[1]; other: nasogastric tube, 400 mg, Treatment 2B: single 400 mg via nasogastric tube, capsule contents dispersed in nutritional supplement, n = 30, read-out: AUC0–t, geometric mean (Geo. %CV)",19200 ng·h/mL
same,AUC(0-inf),"[1]; other: nasogastric tube, 400 mg, Treatment 2B: single 400 mg via nasogastric tube, capsule contents dispersed in nutritional supplement, n = 30, read-out: AUC0–∞, geometric mean (Geo. %CV)",21600 ng·h/mL
same,Cmax,"[1]; other: nasogastric tube, 400 mg, Treatment 2B: single 400 mg via nasogastric tube, capsule contents dispersed in nutritional supplement, n = 30, read-out: Cmax, geometric mean (Geo. %CV)",1250 ng/mL
same,Tmax,"[1]; other: nasogastric tube, 400 mg, Treatment 2B: single 400 mg via nasogastric tube, capsule contents dispersed in nutritional supplement, n = 30, read-out: Tmax, median (range)",1.9 h
same,half-life,"[1]; other: nasogastric tube, 400 mg, Treatment 2B: single 400 mg via nasogastric tube, capsule contents dispersed in nutritional supplement, n = 30",106 h
same,AUC(0-t),"[1]; other: nasogastric tube, 400 mg, Treatment 2B: single 400 mg via nasogastric tube, dispersed in nutritional supplement, n = 30, read-out: AUC0–t, geometric mean (statistical analysis)",19200 ng·h/mL
same,AUC(0-inf),"[1]; other: nasogastric tube, 400 mg, Treatment 2B: single 400 mg via nasogastric tube, dispersed in nutritional supplement, n = 30, read-out: AUC0–∞, geometric mean (statistical analysis)",21600 ng·h/mL
same,Cmax,"[1]; other: nasogastric tube, 400 mg, Treatment 2B: single 400 mg via nasogastric tube, dispersed in nutritional supplement, n = 30, read-out: Cmax, geometric mean (statistical analysis)",1250 ng/mL
same,Tmax,"[1]; other: nasogastric tube, 400 mg, Treatment 2B: single 400 mg via nasogastric tube, dispersed in nutritional supplement, n = 30, read-out: Tmax, median (statistical analysis)",1.87 h
same,AUC(0-t),"[1]; po, 400 mg, Treatment 2A: single 400 mg oral, 4 × 100-mg intact capsules with nutritional supplement, n = 30, read-out: AUC0–t, geometric mean (Geo. %CV)",22600 ng·h/mL
same,AUC(0-inf),"[1]; po, 400 mg, Treatment 2A: single 400 mg oral, 4 × 100-mg intact capsules with nutritional supplement, n = 30, read-out: AUC0–∞, geometric mean (Geo. %CV)",25000 ng·h/mL
same,Cmax,"[1]; po, 400 mg, Treatment 2A: single 400 mg oral, 4 × 100-mg intact capsules with nutritional supplement, n = 30, read-out: Cmax, geometric mean (Geo. %CV)",1390 ng/mL
same,Tmax,"[1]; po, 400 mg, Treatment 2A: single 400 mg oral, 4 × 100-mg intact capsules with nutritional supplement, n = 30, read-out: Tmax, median (range)",2.9 h
same,half-life,"[1]; po, 400 mg, Treatment 2A: single 400 mg oral, 4 × 100-mg intact capsules with nutritional supplement, n = 30",96.8 h
same,AUC(0-t),"[1]; po, 400 mg, Treatment 2A: single 400 mg oral, intact capsules with nutritional supplement, n = 30, read-out: AUC0–t, geometric mean (statistical analysis)",22600 ng·h/mL
same,AUC(0-inf),"[1]; po, 400 mg, Treatment 2A: single 400 mg oral, intact capsules with nutritional supplement, n = 30, read-out: AUC0–∞, geometric mean (statistical analysis)",25000 ng·h/mL
same,Cmax,"[1]; po, 400 mg, Treatment 2A: single 400 mg oral, intact capsules with nutritional supplement, n = 30, read-out: Cmax, geometric mean (statistical analysis)",1390 ng/mL
same,Tmax,"[1]; po, 400 mg, Treatment 2A: single 400 mg oral, intact capsules with nutritional supplement, n = 30, read-out: Tmax, median (statistical analysis)",2.67 h
same,Cmax,"[1]; po, 400 mg, Treatment 2C: 400 mg oral divided dose (2 × 100-mg capsules BID) with nutritional supplement, after the first dose, n = 30, read-out: Cmax, geometric mean (Geo. %CV)",641 ng/mL
same,Tmax,"[1]; po, 400 mg, Treatment 2C: 400 mg oral divided dose (2 × 100-mg capsules BID) with nutritional supplement, after the first dose, n = 30, read-out: Tmax, median (range)",1.9 h
same,half-life,"[1]; po, 400 mg, Treatment 2C: 400 mg oral divided dose (2 × 100-mg capsules BID) with nutritional supplement, after the second dose, n = 30",96.7 h
same,AUC(0-t),"[1]; Treatment 2C: 400 mg oral divided dose (2 × 100-mg capsules BID) with nutritional supplement, from time 0 (first dose) through 240 h, n = 30, read-out: AUC0–t, geometric mean (Geo. %CV)",18900 ng·h/mL
same,AUC(0-inf),"[1]; Treatment 2C: 400 mg oral divided dose (2 × 100-mg capsules BID) with nutritional supplement, from time 0 (first dose), n = 30, read-out: AUC0–∞, geometric mean (Geo. %CV)",21300 ng·h/mL
same,Deaths or serious/severe AEs,"[2]; during the study, all treatments",no deaths or serious/severe AEs were reported
same,"AE constipation, participants","[2]; human, in vivo",12.1%
same,"AE diarrhea, participants","[2]; human, in vivo",10.3%
same,"AE somnolence, participants","[2]; human, in vivo",10.3%
same,Moderate AEs reported (number of AEs),"[2]; human, in vivo",4
same,Participants discontinued due to AEs,"[2]; human, in vivo",3 participants
same,Participants with at least 1 AE,"[2]; human, in vivo",65.5%
same,Drug recovery from the nasogastric tube,[3],near-complete drug recovery
same,Stability in suspension,[3],stable up to 1 h in suspension
same,Patients achieving ≥ 35% spleen volume reduction at the end of cycle 6,[4],25.7%
same,Patients achieving ≥ 50% reduction in total symptom score at end of cycle 6,[4],44.4%
same,Patients with best overall response of ≥ 35% spleen volume reduction at any time,[4],62.9%
same,"Time to peak concentration, median",[5],3 h
same,"Increases in exposure (Cmax, AUC) when administered directly after food vs 10-h fasted",[6],< 25%
same,"Terminal elimination half-life (t½), fed vs fasted conditions",[6],remained unaffected
